Measurements as given in patent US7935702B2, “Substituted biaryl quinolin-4-ylamine analogues” (Neurogen Corporation, priority 2004, dated 2011).
Read-outs that look alike come from different tables or passages of the source.

Columns and labels:
VR = VR (Homo sapiens, UniProt Q8NER1); conditions: background; typical value; cited from earlier work
human capsaicin receptor = target: T1, human capsaicin receptor (Homo sapiens, UniProt Q8NER1); test: Calcium mobilization assay, determination of antagonist activity (Example 6); assay type: cell-based
T1 construct: expressed in transfected cells
T1 sequence (Q8NER1 whole entry): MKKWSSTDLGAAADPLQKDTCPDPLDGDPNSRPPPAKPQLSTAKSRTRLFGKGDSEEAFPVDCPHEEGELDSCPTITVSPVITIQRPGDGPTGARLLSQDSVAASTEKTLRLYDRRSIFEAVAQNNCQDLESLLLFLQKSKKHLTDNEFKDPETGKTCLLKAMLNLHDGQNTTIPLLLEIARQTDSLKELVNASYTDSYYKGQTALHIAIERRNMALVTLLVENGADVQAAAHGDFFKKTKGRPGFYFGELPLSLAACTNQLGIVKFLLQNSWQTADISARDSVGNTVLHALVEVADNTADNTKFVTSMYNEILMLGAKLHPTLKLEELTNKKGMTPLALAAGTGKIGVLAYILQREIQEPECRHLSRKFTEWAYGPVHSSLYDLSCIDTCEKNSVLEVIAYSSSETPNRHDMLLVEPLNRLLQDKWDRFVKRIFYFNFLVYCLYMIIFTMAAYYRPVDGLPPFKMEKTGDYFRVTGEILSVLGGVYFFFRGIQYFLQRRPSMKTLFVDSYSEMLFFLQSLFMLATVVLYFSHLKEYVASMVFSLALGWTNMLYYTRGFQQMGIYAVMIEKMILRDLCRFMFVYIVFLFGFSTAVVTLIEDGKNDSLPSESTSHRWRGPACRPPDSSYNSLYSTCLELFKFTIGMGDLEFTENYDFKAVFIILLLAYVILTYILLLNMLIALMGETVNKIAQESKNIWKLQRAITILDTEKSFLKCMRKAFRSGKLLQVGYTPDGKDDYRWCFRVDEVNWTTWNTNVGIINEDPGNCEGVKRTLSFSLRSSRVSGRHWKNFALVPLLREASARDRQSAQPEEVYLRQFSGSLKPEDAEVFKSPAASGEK
Procedure: A cDNA encoding full length human capsaicin receptor (SEQ ID NO:1, 2 or 3 of U.S. Pat. No. 6,482,611) is subcloned in the plasmid pBK-CMV (Stratagene, La Jolla, Calif.) for recombinant expression in mammalian cells.
Human embryonic kidney (HEK293) cells are transfected with the pBK-CMV expression construct encoding the full length human capsaicin receptor using standard methods. The transfected cells are selected for two weeks in media containing G418 (400 μg/ml) to obtain a pool of stably transfected cells. Independent clones are isolated from this pool by limiting dilution to obtain clonal stable cell lines for use in subsequent experiments.
This Example illustrates representative calcium mobilization assays for use in evaluating test compounds for agonist and antagonist activity.
Cells transfected with expression plasmids (as described in Example 4) and thereby expressing human capsaicin receptor are seeded and grown to 70-90% confluency in FALCON black-walled, clear-bottomed 96-well plates (#3904, BECTON-DICKINSON, Franklin Lakes, N.J.). The culture medium is emptied from the 96 well plates and FLUO-3 AM calcium sensitive dye (Molecular Probes, Eugene, Oreg.) is added to each well (dye solution: 1 mg FLUO-3 AM, 440 μL DMSO and 440 μl 20% pluronic acid in DMSO, diluted 1:250 in Krebs-Ringer HEPES (KRH) buffer (25 mM HEPES, 5 mM KCl, 0.96 mM NaH2PO4, 1 mM MgSO4, 2 mM CaCl2, 5 mM glucose, 1 mM probenecid, pH 7.4), 50 μl diluted solution per well). Plates are covered with aluminum foil and incubated at 37° C. for 1-2 hours in an environment containing 5% CO2. After the incubation, the dye is emptied from the plates, and the cells are washed once with KRH buffer, and resuspended in KRH buffer.
To measure the ability of a test compound to agonize or antagonize a calcium mobilization response in cells expressing capsaicin receptors to capsaicin or other vanilloid agonist, the EC50 of the agonist capsaicin is first determined. An additional 20 μl of KRH buffer and 1 μl DMSO is added to each well of cells, prepared as described above. 100 μl capsaicin in KRH buffer is automatically transferred by the FLIPR instrument to each well. Capsaicin-induced calcium mobilization is monitored using either FLUOROSKAN ASCENT (Labsystems; Franklin, Mass.) or FLIPR (fluorometric imaging plate reader system; Molecular Devices, Sunnyvale, Calif.) instruments. Data obtained between 30 and 60 seconds after agonist application are used to generate an 8-point concentration response curve, with final capsaicin concentrations of 1 nM to 3 μM. KALEIDAGRAPH software (Synergy Software, Reading, Pa.) is used to fit the data to the equation: y=a*(1/(1+(b/x)^c)) to determine the 50% excitatory concentration (EC50) for the response. In this equation, y is the maximum fluorescence signal, x is the concentration of the agonist or antagonist (in this case, capsaicin), a is the Emax, b corresponds to the EC50 value and c is the Hill coefficient. Determination of Agonist Activity
Test compounds are dissolved in DMSO, diluted in 20 μl KRH buffer so that the final concentration of test compounds in the assay well is between 1 μM and 5 μM, and added to cells prepared as described above. The 96 well plates containing prepared cells and test compounds are incubated in the dark, at room temperature for 0.5 to 6 hours. It is important that the incubation not continue beyond 6 hours. Just prior to determining the fluorescence response, 100 μl capsaicin in KRH buffer at twice the EC50 concentration determined as described above is automatically added by the FLIPR instrument to each well of the 96 well plate for a final sample volume of 200 μl and a final capsaicin concentration equal to the EC50. The final concentration of test compounds in the assay wells is between 1 μM and 5 μM. […]

[1] = cells expressing human capsaicin receptor, capsaicin at EC50, read-out: IC50 determined as described in Example 6
[2] = Table I, IC50 determined as described in Example 6, read-out: IC50

VR, sequence (Q8NER1 whole entry): as above

| SMILES | IC50 (human capsaicin receptor; [1]) | IC50 (human capsaicin receptor; [2]) | also measured |
| --- | --- | --- | --- |
| Cl.Cl.Cl.Cl.Cl.Cl.N.N.N.N.N.N.N.N.N.N.N.N.N.N.[O-2].[O-2].[Ru+3].[Ru+3].[Ru+4] [ruthenium red] | – | – | Ki (VR): ≥ 140000 nM |
| O=C(O)c1cnc(-c2cnc3c(Nc4ccc(C(F)(F)F)cn4)ccnc3n2)c(C(F)(F)F)c1 [Compound 13, 5-(Trifluoromethyl)-6-(8-(5-(trifluoromethyl)pyridin-2-ylamino)pyrido[2,3-b]pyrazin-3-yl)nicotinic acid] | < 1000 nM | – | – |
| O=C(O)c1cnc(-c2cnc3c(Nc4ccc(C(F)(F)F)cn4)ccnc3n2)c(C(F)(F)F)c1 [compound 33, 5-(trifluoromethyl)-6-(8-{[5-(trifluoromethyl)-2-pyridinyl]amino}pyrido[2,3-b]pyrazin-3-yl)nicotinic acid] | – | < 1000 nM | – |
| CCOc1nc(Nc2ccnc3nc(-c4ccc(C#N)cc4C(F)(F)F)cnc23)ccc1C(F)(F)F [compound 42, 4-(8-{[6-ethoxy-5-(trifluoromethyl)pyridin-2-yl]amino}pyrido[2,3-b]pyrazin-3-yl)-3-(trifluoromethyl)benzonitrile] | – | < 1000 nM | – |
| COc1ccc(C(F)(F)F)c(-c2ccc3c(Nc4ccc(C(F)(F)F)cn4)ccnc3n2)n1 [Compound 5, [7-(6-Methoxy-3-trifluoromethyl-pyridin-2-yl)-[1,8]naphthyridin-4-yl]-(5-trifluoromethyl-pyridin-2-yl)-amine] | < 1000 nM | – | – |
| FC(F)(F)c1ccc(Nc2ccnc3nc(-c4nnc(NCc5cccnc5)cc4C(F)(F)F)cnc23)nc1 [Compound 20] | < 1000 nM | – | – |
| FC(F)(F)c1ccc(Nc2ccnc3nc(-c4ncc(Br)cc4C(F)(F)F)cnc23)nc1 [Compound 10, 3-(5-Bromo-3-(trifluoromethyl)pyridin-2-yl)-N-(5-(trifluoromethyl)pyridin-2-yl)pyrido[2,3-b]pyrazin-8-amine] | < 1000 nM | – | – |
| NC(=O)c1cnc(-c2ccc3c(Nc4ccc(C(F)(F)F)cn4)ccnc3n2)c(C(F)(F)F)c1 [Compound 8, 5-Trifluoromethyl-6-[5-(5-trifluoromethyl-pyridin-2-ylamino)-[1,8]naphthyridin-2-yl]-nicotinamide] | < 1000 nM | – | – |
| O=C(O)c1ccc(-c2cnc3c(Nc4ccc(C(F)(F)F)cn4)ccnc3n2)c(C(F)(F)F)c1 [compound 38, 3-(trifluoromethyl)-4-(8-{[5-(trifluoromethyl)pyridin-2-yl]amino}pyrido[2,3-b]pyrazin-3-yl)benzoic acid] | – | < 1000 nM | – |

Further lines, with some results ahead:

| IC50 (human capsaicin receptor; [1]) | IC50 (human capsaicin receptor; [2]) | SMILES | also measured |
| --- | --- | --- | --- |
| – | < 1000 nM | CCCCN(C)CCNc1cc(C(F)(F)F)c(-c2cnc3c(Nc4ccc(C(F)(F)F)cn4)ccnc3n2)nn1 [compound 70, N-butyl-N-methyl-N′-[5-(trifluoromethyl)-6-(8-{[5-(trifluoromethyl)pyridin-2-yl]amino}pyrido[2,3-b]pyrazin-3-yl)pyridazin-3-yl]ethane-1,2-diamine] | – |
| – | < 1000 nM | CCCN(CC1CC1)C1CCN(c2cc(C(F)(F)F)c(-c3cnc4c(Nc5ccc(C(F)(F)F)cn5)ccnc4n3)nn2)CC1 [compound 87, 3-[6-{4-[(cyclopropylmethyl)-(propyl)amino]piperidin-1-yl}-4-(trifluoromethyl)-pyridazin-3-yl]-N-[5-(trifluoromethyl)pyridin-2-yl]-pyrido[2,3-b]pyrazin-8-amine] | – |
| – | < 1000 nM | CC(C)CNc1cc(C(F)(F)F)c(-c2cnc3c(Nc4ccc(C(F)(F)F)cn4)ccnc3n2)nn1 [compound 99, 3-[6-(isobutylamino)-4-(trifluoromethyl)pyridazin-3-yl]-N-[5-(trifluoromethyl)-pyridin-2-yl]pyrido[2,3-b]pyrazin-8-amine] | – |
| – | < 1000 nM | CN(C)CCCN(C)c1cc(C(F)(F)F)c(-c2cnc3c(Nc4ccc(C(F)(F)F)cn4)ccnc3n2)nn1 [compound 88, N,N,N′-trimethyl-N′-[5-(trifluoromethyl)-6-(8-{[5-(trifluoromethyl)pyridin-2-yl]amino}pyrido[2,3-b]pyrazin-3-yl)pyridazin-3-yl]propane-1,3-diamine] | – |
| – | < 1000 nM | C[C@@H](O)CNc1cc(C(F)(F)F)c(-c2cnc3c(Nc4ccc(C(F)(F)F)cn4)ccnc3n2)nn1 [compound 125, (R)-1-{[5-(trifluoromethyl)-6-(8-{[5-(trifluoromethyl)-pyridin-2-yl]amino}-pyrido[2,3-b]pyrazin-3-yl)pyridazin-3-yl]amino}propan-2-ol] | – |
| – | < 1000 nM | CCC(CC)Nc1cc(C(F)(F)F)c(-c2cnc3c(Nc4ccc(C(F)(F)F)cn4)ccnc3n2)nn1 [compound 115, 3-{6-[(1-ethylpropyl)amino]-4-(trifluoromethyl)pyridazin-3-yl}-N-[5-(trifluoromethyl)-pyridin-2-yl]pyrido[2,3-b]pyrazin-8-amine] | – |
